Here are results for 13 compounds from PMC9250534, “Synthesis and direct assay of large macrocycle diversities by combinatorial late-stage modification at picomole scale” (Nature Communications, 2022).

The target of this assay is MDM2 (Homo sapiens, UniProt Q00987). Kind of assay: MDM2 binding screen: displacement of fluorescent p53 peptide probe FP53 (fluorescence polarization). The following applies: for fraction fluorescent probe displaced, Screen: initial screen; for fraction fluorescent probe displaced, Screen / fraction fluorescent probe displaced, Replicate: crude macrocycle reactions. A digest of the protocol: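 Single-point screen: one fluorescence anisotropy reading at 25 °C (485 nm excitation, 535 nm emission) per macrocycle. Crude macrocycle reactions, final 10 µM, were scored for displacing the fluorescent p53 peptide from human MDM2.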
Sequence of MDM2 (Q00987 whole entry): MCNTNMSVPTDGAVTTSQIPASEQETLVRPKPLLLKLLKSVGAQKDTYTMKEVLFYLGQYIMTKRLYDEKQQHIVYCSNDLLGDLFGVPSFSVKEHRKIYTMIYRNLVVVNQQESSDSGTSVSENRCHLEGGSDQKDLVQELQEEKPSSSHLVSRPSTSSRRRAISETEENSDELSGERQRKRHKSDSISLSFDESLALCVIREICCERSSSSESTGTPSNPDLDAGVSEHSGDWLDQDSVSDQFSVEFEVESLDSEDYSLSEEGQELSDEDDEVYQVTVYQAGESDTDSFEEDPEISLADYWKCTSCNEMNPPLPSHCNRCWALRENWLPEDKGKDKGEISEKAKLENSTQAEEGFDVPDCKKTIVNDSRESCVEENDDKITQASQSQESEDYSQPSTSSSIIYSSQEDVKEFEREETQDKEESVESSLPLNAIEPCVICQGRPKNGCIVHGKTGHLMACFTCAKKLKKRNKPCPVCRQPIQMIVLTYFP
(In general: Fluorescence polarisation rises when a labelled molecule tumbles more slowly, as on binding a larger partner.)

Numbered stars: 1 amine (or outer) side, 2 acyl side, 3 side chain; on linkers, the order of the positions; unused ones are H or OH. Bridge positions count the residues as written; N and C are the ends. Square brackets hold non-standard residues; d marks the D form. Peptide text beside a SMILES is read from it. * marks the point of attachment. ξ: configuration not given here. ξPro(4-NHCO(5-Cl-2-thienyl)) = O=C(NC1CNC(C(=O)O)C1)c1ccc(Cl)s1; Benzoyl(4-Cl) = O=C(c1ccc(Cl)cc1)*; Cysteamide = C(CS[*:3])N[*:1]; X1 = O=C(/C=C/c1ccccc1)*; Api = NC1(C(=O)O)CCNCC1; Dap = NC[C@H](N)C(=O)O; Mpa = O=C(O)CCS

In the case of `O=C1NC(Cc2ccccc2)C(=O)NCCSSCCC(=O)N2CC(NC(=O)c3ccc(Cl)s3)CC2C(=O)NCc2cccc1c2` (centres unmarked) [X D5 B5 F Acid 14], the “fraction fluorescent probe displaced, Screen” value (Acid 14) is listed as -0.0337. Further, the “fraction fluorescent probe displaced, Replicate” value (Acid 14, replicate) was found to be 0.0465.

Consider `O=C1CCSSCCNC(=O)[C@@H]2C[C@H](NC(=O)c3ccc(Cl)s3)CN2C(=O)CCNC(=O)[C@H](Cc2ccccc2)N1` [X F B2 D5 Acid 14], for which, for the setting “Acid 14”, the “fraction fluorescent probe displaced, Screen” value is 0.08. The “fraction fluorescent probe displaced, Replicate” value (Acid 14, replicate) came out at 0.07.

As for `O=C(/C=C/c1ccccc1)NC[C@@H]1NC(=O)CCSSCCNC(=O)[C@H](Cc2ccccc2)NC(=O)[C@@H]2CCCN2C1=O` [X D3 B1 F Acid 91] ([Mpa][Dap](X1)PF-Cysteamide; disulfide 1-C), the “fraction fluorescent probe displaced, Screen” value (Acid 91) came out at 0.00268. Further, under “Acid 91, replicate”, the “fraction fluorescent probe displaced, Replicate” value is on record as -0.00827.

`O=C(N[C@H]1C[C@H]2C(=O)N[C@@H](Cc3c[nH]c4ccccc34)C(=O)NCCSSCCC(=O)N3CCC[C@@H](C3)C(=O)N2C1)c1ccc(Cl)s1` [X B4 D5 W Acid 14]: the “fraction fluorescent probe displaced, Screen” value (Acid 14) was determined as 0.11. Besides, the “fraction fluorescent probe displaced, Replicate” value (Acid 14, replicate) is 0.0211.

Turning to `O=C1CCSSCCNC(=O)[C@H](Cc2ccccc2)NC(=O)[C@H]2CCCN(C2)C(=O)C2(CCN(C(=O)c3ccc(Cl)s3)CC2)N1` [X D6 B4 F + Acid 14], the “fraction fluorescent probe displaced” value is, setting by setting: (crude reaction of macrocycle scaffold with Acid 14, (initial screen)) -0.00483; (crude reaction of macrocycle scaffold with Acid 14, replicate) 0.10.

As for `O=C1NCCSSCCC(=O)N2CCN(C(=O)c3ccc(Cl)cc3)CC2C(=O)NC(Cc2c[nH]c3ccccc23)C(=O)NCc2cccc1c2` (mixture of isomers) [X D7 W B5 Acid 25], the “fraction fluorescent probe displaced, Screen” value (Acid 25) is 0.61. In addition, the “fraction fluorescent probe displaced, Replicate” value (Acid 25, replicate) is 0.58.

For `O=C1CCNC(=O)C2CN(C(=O)c3ccc(Cl)s3)CCN2C(=O)CCSSCCNC(=O)C(Cc2c[nH]c3ccccc23)N1` (centres unmarked) [X D7 B2 W Acid 14], the “fraction fluorescent probe displaced, Screen” value (Acid 14) came to 0.11. For the same compound, the “fraction fluorescent probe displaced, Replicate” value (Acid 14, replicate) came out at 0.12.

Consider `O=C1NCCSSCCC(=O)N2CCCC(C2)C(=O)N2CCN(C(=O)c3ccc(Cl)cc3)CC2C(=O)NC1Cc1ccccc1` (centres unmarked) [X B4 D7 F + Acid 25], for which the “fraction fluorescent probe displaced” value was determined as 0.15 (crude reaction of macrocycle scaffold with Acid 25, (initial screen)) and 0.10 (crude reaction of macrocycle scaffold with Acid 25, replicate).

As for `O=C(NC1CC2C(=O)NC(Cc3c[nH]c4ccccc34)C(=O)N3CCCC(C3)C(=O)NCCSSCCC(=O)N2C1)c1ccc(Cl)cc1` (centres unmarked) [X D5 W B4 Acid 25], the “fraction fluorescent probe displaced, Screen” value (Acid 25) is recorded as 0.09. Besides, the “fraction fluorescent probe displaced, Replicate” value (Acid 25, replicate) is on record as 0.15.

As to `O=C1CCSSCCNC(=O)C2(CCN(C(=O)c3ccc(Cl)cc3)CC2)NC(=O)[C@@H]2CCCN2C(=O)[C@H](Cc2ccccc2)N1` [X F B1 D6 Acid 25] ([Mpa]FP[Api](Benzoyl(4-Cl))-Cysteamide; disulfide 1-C), the “fraction fluorescent probe displaced, Screen” value (Acid 25) is 0.22. Moreover, where the note is “Acid 25, replicate”, the “fraction fluorescent probe displaced, Replicate” value is 0.10.

Regarding `O=C(NC1CC2C(=O)NCCSSCCC(=O)N3CCCC3C(=O)NC(Cc3ccccc3)C(=O)N2C1)c1ccc(Cl)s1` (centres unmarked) [X B1 F D5 Acid 14] ([Mpa]PF[ξPro(4-NHCO(5-Cl-2-thienyl))]-Cysteamide; disulfide 1-C; configuration not given here), for the setting “Acid 14”, the “fraction fluorescent probe displaced, Screen” value came to 0.11. Besides, the “fraction fluorescent probe displaced, Replicate” value (Acid 14, replicate) stood at 0.07.

`O=C1CCSSCCNC(=O)[C@H](Cc2c[nH]c3ccccc23)NC(=O)C2(CCN(C(=O)c3ccc(Cl)cc3)CC2)NC(=O)c2cccc(c2)CN1` [X B5 D6 W Acid 25]: the “fraction fluorescent probe displaced, Screen” value (Acid 25) is 0.12. Besides, under “Acid 25, replicate”, the “fraction fluorescent probe displaced, Replicate” value was found to be 0.15.

For the compound `O=C1CCSSCCNC(=O)C2(CCN(C(=O)/C=C/c3ccccc3)CC2)NC(=O)[C@H]2CCCN(C2)C(=O)[C@H](Cc2ccccc2)N1` [X F B4 D6 Acid 91], the “fraction fluorescent probe displaced, Screen” value (Acid 91) is reported as 0.0563. Further, the “fraction fluorescent probe displaced, Replicate” value (Acid 91, replicate) is -0.00827.
